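Step 1: Grow cells in 96-well plates. Step 2: Expose to compound for 48 hours at 5 concentrations. Step 3: Interpolate endpoints linearly; if unreached, use highest concentration. At the GI50, growth is halved. Definition used: TGI = concentration required for complete inhibition of growth.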
Legend:
Assay in all cases: growth of human tumour cells (NCI), 48 h; in the data active = GI50 below about 0.43 µM; inactive = the rest
NCI-H460 lung = system: NCI-H460 lung
SNB-19 CNS = system: SNB-19 CNS
HL-60(TB) leukemia = system: HL-60(TB) leukemia
SW-620 colon = system: SW-620 colon
SK-MEL-2 melanoma = system: SK-MEL-2 melanoma
MCF7 breast = system: MCF7 breast
HS 578T breast = system: HS 578T breast
SK-MEL-5 melanoma = system: SK-MEL-5 melanoma
SK-OV-3 ovarian = system: SK-OV-3 ovarian
NCI-H226 lung = system: NCI-H226 lung
OVCAR-4 ovarian = system: OVCAR-4 ovarian
UO-31 renal = system: UO-31 renal
UACC-257 melanoma = system: UACC-257 melanoma
HOP-92 NSCLC = system: HOP-92 NSCLC
SF-295 CNS = system: SF-295 CNS
CAKI-1 renal = system: CAKI-1 renal
CCRF-CEM leukemia = system: CCRF-CEM leukemia
ACHN renal = system: ACHN renal
OVCAR-3 ovarian = system: OVCAR-3 ovarian
SK-MEL-28 melanoma = system: SK-MEL-28 melanoma
SNB-75 CNS = system: SNB-75 CNS
NCI-H522 lung = system: NCI-H522 lung
MALME-3M melanoma = system: MALME-3M melanoma
U251 CNS = system: U251 CNS
OVCAR-8 ovarian = system: OVCAR-8 ovarian
786-0 renal = system: 786-0 renal
HCC-2998 colon = system: HCC-2998 colon
OVCAR-5 ovarian = system: OVCAR-5 ovarian
EKVX NSCLC = system: EKVX NSCLC
SR leukemia = system: SR leukemia
HCT-116 colon = system: HCT-116 colon
A549 NSCLC = system: A549 NSCLC
IGROV1 ovarian = system: IGROV1 ovarian
K-562 leukemia = system: K-562 leukemia
T-47D breast = system: T-47D breast
MDA-MB-231 breast = system: MDA-MB-231 breast
SF-268 CNS = system: SF-268 CNS
HCT-15 colon = system: HCT-15 colon
HOP-62 NSCLC = system: HOP-62 NSCLC
COLO 205 colon = system: COLO 205 colon
TK-10 renal = system: TK-10 renal
MOLT-4 leukemia = system: MOLT-4 leukemia
UACC-62 melanoma = system: UACC-62 melanoma
SF-539 CNS = system: SF-539 CNS
BT-549 breast = system: BT-549 breast
RPMI-8226 leukemia = system: RPMI-8226 leukemia
DU-145 prostate = system: DU-145 prostate
PC-3 prostate = system: PC-3 prostate
SN12C renal = system: SN12C renal
M14 melanoma = system: M14 melanoma
HT29 colon = system: HT29 colon
KM12 colon = system: KM12 colon
NCI/ADR-RES ovarian = system: NCI/ADR-RES ovarian
LOX IMVI melanoma = system: LOX IMVI melanoma
RXF 393 renal = system: RXF 393 renal
MDA-MB-435 = system: MDA-MB-435
NCI-H23 lung = system: NCI-H23 lung

COc1ccc(-c2nc3sc(-c4ccc(Cl)cc4)cn3n2)cc1
inactive: GI50 (NCI-H460 lung) 1.33 µM | GI50 (SNB-19 CNS) 2.47 µM | GI50 (HL-60(TB) leukemia) > 50 µM | GI50 (SW-620 colon) 5.51 µM | GI50 (SK-MEL-2 melanoma) > 50 µM | GI50 (MCF7 breast) 2.62 µM | GI50 (HS 578T breast) 2.31 µM | GI50 (SK-MEL-5 melanoma) 14 µM | GI50 (SK-OV-3 ovarian) 11.7 µM | GI50 (NCI-H226 lung) 11.1 µM | GI50 (OVCAR-4 ovarian) 0.766 µM | GI50 (UO-31 renal) 1.19 µM | GI50 (UACC-257 melanoma) > 50 µM | GI50 (HOP-92 NSCLC) 0.915 µM | GI50 (SF-295 CNS) 2.81 µM | GI50 (CAKI-1 renal) 1.79 µM | GI50 (CCRF-CEM leukemia) > 50 µM | GI50 (ACHN renal) 0.927 µM | GI50 (OVCAR-3 ovarian) 1.72 µM | GI50 (SK-MEL-28 melanoma) > 50 µM | GI50 (SNB-75 CNS) 1.61 µM | GI50 (NCI-H522 lung) 14.9 µM | GI50 (MALME-3M melanoma) 2.71 µM | GI50 (U251 CNS) 1.03 µM | GI50 (OVCAR-8 ovarian) 2.6 µM | GI50 (786-0 renal) 1.06 µM | GI50 (HCC-2998 colon) > 50 µM | GI50 (OVCAR-5 ovarian) 2.78 µM | GI50 (EKVX NSCLC) 4.82 µM | GI50 (SR leukemia) 4.53 µM | GI50 (HCT-116 colon) 1.21 µM | GI50 (A549 NSCLC) 1.59 µM | GI50 (IGROV1 ovarian) 1.15 µM | GI50 (K-562 leukemia) 29.4 µM | GI50 (T-47D breast) 3.54 µM | GI50 (MDA-MB-231 breast) 2.06 µM | GI50 (SF-268 CNS) 48 µM | GI50 (HCT-15 colon) 24.5 µM | GI50 (HOP-62 NSCLC) 2.36 µM | GI50 (COLO 205 colon) 2.65 µM | GI50 (TK-10 renal) 2.01 µM | GI50 (MOLT-4 leukemia) 11.3 µM | GI50 (UACC-62 melanoma) 8.24 µM | GI50 (SF-539 CNS) 1.85 µM | GI50 (BT-549 breast) 43.2 µM | GI50 (RPMI-8226 leukemia) 3.67 µM | GI50 (DU-145 prostate) > 50 µM | GI50 (PC-3 prostate) > 50 µM | GI50 (SN12C renal) 1.84 µM | GI50 (M14 melanoma) > 50 µM | GI50 (HT29 colon) 2.96 µM | GI50 (KM12 colon) 12.2 µM | GI50 (NCI/ADR-RES ovarian) 3.75 µM | GI50 (LOX IMVI melanoma) > 50 µM | GI50 (RXF 393 renal) 6 µM | GI50 (MDA-MB-435) > 50 µM | GI50 (NCI-H23 lung) 6.66 µM
7.61 µM: TGI (HOP-92 NSCLC)
5.62 µM: TGI (TK-10 renal)
2.41 µM: TGI (786-0 renal)
26.1 µM: TGI (SR leukemia)
3.48 µM: TGI (HCT-116 colon)
8.13 µM: TGI (IGROV1 ovarian)
6.85 µM: TGI (SNB-75 CNS)
1.63 µM: TGI (OVCAR-4 ovarian)
31.8 µM: TGI (SF-295 CNS)
4 µM: TGI (NCI-H460 lung)
7.2 µM: TGI (OVCAR-3 ovarian)
39.7 µM: TGI (RXF 393 renal)
2.02 µM: TGI (ACHN renal)
4.51 µM: TGI (UO-31 renal)
5.89 µM: TGI (A549 NSCLC)
2.29 µM: TGI (U251 CNS)
16.7 µM: TGI (MDA-MB-231 breast)
8.92 µM: TGI (CAKI-1 renal)
> 50 µM: TGI (SNB-19 CNS) | TGI (HL-60(TB) leukemia) | TGI (SW-620 colon) | TGI (SK-MEL-2 melanoma) | TGI (MCF7 breast) | TGI (HS 578T breast) | TGI (SK-MEL-5 melanoma) | TGI (SK-OV-3 ovarian) | TGI (NCI-H226 lung) | TGI (UACC-257 melanoma) | TGI (CCRF-CEM leukemia) | TGI (SK-MEL-28 melanoma) | TGI (NCI-H522 lung) | TGI (MALME-3M melanoma) | TGI (OVCAR-8 ovarian) | TGI (HCC-2998 colon) | TGI (OVCAR-5 ovarian) | TGI (EKVX NSCLC) | TGI (K-562 leukemia) | TGI (T-47D breast) | TGI (SF-268 CNS) | TGI (HCT-15 colon) | TGI (HOP-62 NSCLC) | TGI (COLO 205 colon) | TGI (MOLT-4 leukemia) | TGI (UACC-62 melanoma) | TGI (BT-549 breast) | TGI (RPMI-8226 leukemia) | TGI (DU-145 prostate) | TGI (PC-3 prostate) | TGI (SN12C renal) | TGI (M14 melanoma) | TGI (HT29 colon) | TGI (KM12 colon) | TGI (NCI/ADR-RES ovarian) | TGI (LOX IMVI melanoma) | TGI (MDA-MB-435) | TGI (NCI-H23 lung)
21.5 µM: TGI (SF-539 CNS)

From PubChem BioAssay (NCI)
